Values after ≈ are worked out from the molar mass of the structure shown. Where two headings read alike, the source gives them in different places. Starred links: 1 amine or outer side, 2 acyl side, 3 side chain; linkers in the order of their positions; H or OH if unused. Positions of bridges follow the written chain, without caps; N, C: chain ends. Residues, ends and D or L forms follow the SMILES beside them. *: point of attachment. C20 diacid = O=C(O)CCCCCCCCCCCCCCCCCCC(=O)*; C18 diacid = O=C(O)CCCCCCCCCCCCCCCCC(=O)*; γGlu = O=C(O)[C@H](CCC(=O)[*:2])N[*:1]
Legend:
[1] = Assay (III) ThT fibrillation assay for physical stability; assay type: physicochemical
Summary of the method: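 Freshly prepared formulations, pH-adjusted, with 1 μM ThT; four or eight replicates incubated at 37 °C under 960 rpm orbital shaking. Fluorescence (ex 444/em 485 nm) read every 20 min; […]. Peptide concentration measured by RP-HPLC before and after the run.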

[2] = Assay (IV) determination of solubility; assay type: physicochemical
Summary of the method: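 Solubility is measured across pH 3.0–8.0 by mixing a ~500 nmol/ml aqueous polypeptide stock 1:1 with 100 mM glycylglycine or bistrispropane buffers. Samples stand 18 hours at room temperature, then are centrifuged and the soluble concentration is determined by HPLC.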

[3] = bistrispropane buffer, pH 6, pH 6.0, read-out: Solubility pH 6.0
[4] = bistrispropane buffer, pH 6.5, pH 6.5, read-out: Solubility pH 6.5
[5] = bistrispropane buffer, pH 7, pH 7.0, 18 hours at room temperature, Table 3, read-out: Solubility pH 7.0
[6] = bistrispropane buffer, pH 7, pH 7.0, read-out: Solubility pH 7.0
[7] = bistrispropane buffer, pH 7.5, pH 7.5, read-out: Solubility pH 7.5
[8] = bistrispropane buffer, pH 8, pH 8.0, read-out: Solubility pH 8.0
[9] = glycylglycine buffer, pH 3, pH 3.0, read-out: Solubility pH 3.0
[10] = glycylglycine buffer, pH 4, pH 4.0, 18 hours at room temperature, Table 2, read-out: Solubility pH 4.0
[11] = glycylglycine buffer, pH 4, pH 4.0, read-out: Solubility pH 4.0
[12] = glycylglycine buffer, pH 5, pH 5.0, read-out: Solubility pH 5.0
[13] = bistrispropane buffer, pH 7, pH 7.0, Table 8, read-out: Solubility pH 7.0

Row | Structure (SMILES) | ThT pH 4.0 lag time (h) ([1]; ThT fibrillation assay) | solubility at 18 h [2, 3] [µM] | solubility at 18 h [2, 4] [µM] | solubility at 18 h [2, 5] [µM] | solubility at 18 h [2, 6] [µM] | solubility at 18 h [2, 7] [µM] | solubility at 18 h [2, 8] [µM] | solubility at 18 h [2, 9] [µM] | solubility at 18 h [2, 10] [µM] | solubility at 18 h [2, 11] [µM] | solubility at 18 h [2, 12] [µM] | ThT pH 4.0 lag time ([1]; Table 8) [h] | ThT pH 4.0 lag time ([1]; ThT fibrillation assay) [h] | solubility at 18 h [2, 13] [µM] | ThT pH 4.0 lag time ([1]; Table 9) [h] | solubility at 18 h ([2]; bistrispropane buffer, pH 7, pH 7.0, Table 9, read-out: Solubility pH 7.0) [µM] | solubility at 18 h ([2]; bistrispropane buffer, pH 7.5, pH 7.5, Table 9, read-out: Solubility pH 7.5) [µM]
1 | CC[C@H](C)[C@H](NC(=O)[C@@H]1CCCN1C(=O)CNC(=O)[C@H](Cc1ccccc1)NC(=O)[C@H](CC(N)=O)NC(=O)[C@H](CC(N)=O)NC(=O)[C@H](CO)NC(=O)[C@H](CO)NC(=O)[C@H](Cc1c[nH]cn1)NC(=O)[C@H](Cc1c[nH]cn1)NC(=O)[C@H](CC(C)C)NC(=O)[C@H](Cc1ccccc1)NC(=O)[C@H](CCC(=O)O)NC(=O)[C@H](C)NC(=O)[C@H](CC(C)C)NC(=O)[C@H](CCCNC(=N)N)NC(=O)[C@H](CCC(N)=O)NC(=O)[C@@H](NC(=O)[C@H](C)NC(=O)[C@@H]1CSSC[C@H](NC(=O)[C@H](CCCCN)NC(=O)[C@H](CCC(=O)O)NC(=O)CC[C@H](NC(=O)CCCCCCCCCCCCCCCCC(=O)O)C(=O)O)C(=O)N[C@@H](CC(N)=O)C(=O)N[C@@H]([C@@H](C)O)C(=O)N[C@@H](C)C(=O)N[C@@H]([C@@H](C)O)C(=O)N1)[C@@H](C)O)C(=O)N[C@@H](CC(C)C)C(=O)N1CCC[C@H]1C(=O)N1CCC[C@H]1C(=O)N[C@H](C(=O)N[C@@H](CC(N)=O)C(=O)N[C@H](C(=O)NCC(=O)N[C@@H](CO)C(=O)N[C@@H](CC(N)=O)C(=O)N[C@H](C(=O)N[C@@H](Cc1ccc(O)cc1)C(N)=O)[C@@H](C)O)C(C)C)[C@@H](C)O [Example 42, N-alpha-[(S)-4-Carboxy-4-(17-carboxyheptadecanoylamino)butyryl]-Glu-[Glu14,His17]-pramlintide] ({C18 diacid-γGlu}-EKCNTATCATQRLAEFLHHSSNNFGPILPPTNVGSNTY-NH2; disulfide 3-8 (inferred)) | 7.3 | > 200 | > 200 | > 200 | > 200 | > 200 | > 200 | > 200 | > 200 | > 200 | > 200 | – | – | – | – | – | –
2 | CC[C@H](C)[C@H](NC(=O)[C@@H]1CCCN1C(=O)CNC(=O)[C@H](Cc1ccccc1)NC(=O)[C@H](CC(N)=O)NC(=O)[C@H](CC(N)=O)NC(=O)[C@H](CO)NC(=O)[C@H](CO)NC(=O)[C@H](Cc1c[nH]cn1)NC(=O)[C@H](Cc1c[nH]cn1)NC(=O)[C@H](CC(C)C)NC(=O)[C@H](Cc1ccccc1)NC(=O)[C@H](CCC(=O)O)NC(=O)[C@H](C)NC(=O)[C@H](CC(C)C)NC(=O)[C@H](CCCNC(=N)N)NC(=O)[C@H](CCC(N)=O)NC(=O)[C@@H](NC(=O)[C@H](C)NC(=O)[C@@H]1CSSC[C@H](NC(=O)[C@H](CCCCN)NC(=O)CC[C@H](NC(=O)CCCCCCCCCCCCCCCCC(=O)O)C(=O)O)C(=O)N[C@@H](CC(N)=O)C(=O)N[C@@H]([C@@H](C)O)C(=O)N[C@@H](C)C(=O)N[C@@H]([C@@H](C)O)C(=O)N1)[C@@H](C)O)C(=O)N[C@@H](CC(C)C)C(=O)N1CCC[C@H]1C(=O)N1CCC[C@H]1C(=O)N[C@H](C(=O)N[C@@H](CC(N)=O)C(=O)N[C@H](C(=O)NCC(=O)N[C@@H](CO)C(=O)N[C@@H](CC(N)=O)C(=O)N[C@H](C(=O)N[C@@H](Cc1ccc(O)cc1)C(N)=O)[C@@H](C)O)C(C)C)[C@@H](C)O [Example 46, N-alpha-[(S)-4-Carboxy-4-(17-carboxyheptadecanoylamino)butyryl]-[Glu14,His17]-pramlintide] ({C18 diacid-γGlu}-KCNTATCATQRLAEFLHHSSNNFGPILPPTNVGSNTY-NH2; disulfide 2-7 (inferred); C-terminus assumed) | 27.9 | > 200 | > 200 | 169 (≈ 748 µg/mL) | 169 (≈ 748 µg/mL) | 197 (≈ 872 µg/mL) | > 200 | > 200 | > 200 | > 200 | > 200 | 27.9 | 27.9 | 169 (≈ 748 µg/mL) | – | – | –
3 | CC[C@H](C)[C@H](NC(=O)[C@@H]1CCCN1C(=O)CNC(=O)[C@H](Cc1ccccc1)NC(=O)[C@H](CC(N)=O)NC(=O)[C@H](CC(N)=O)NC(=O)[C@H](CO)NC(=O)[C@H](CO)NC(=O)[C@H](Cc1c[nH]cn1)NC(=O)[C@H](Cc1c[nH]cn1)NC(=O)[C@H](CC(C)C)NC(=O)[C@H](Cc1ccccc1)NC(=O)[C@H](CCC(=O)O)NC(=O)[C@H](C)NC(=O)[C@H](CC(C)C)NC(=O)[C@H](CCCNC(=N)N)NC(=O)[C@H](CCC(N)=O)NC(=O)[C@@H](NC(=O)[C@H](C)NC(=O)[C@@H]1CSSC[C@H](NC(=O)[C@H](Cc2c[nH]cn2)NC(=O)CC[C@H](NC(=O)CCCCCCCCCCCCCCCCC(=O)O)C(=O)O)C(=O)N[C@@H](CC(N)=O)C(=O)N[C@@H]([C@@H](C)O)C(=O)N[C@@H](C)C(=O)N[C@@H]([C@@H](C)O)C(=O)N1)[C@@H](C)O)C(=O)N[C@@H](CC(C)C)C(=O)N1CCC[C@H]1C(=O)N1CCC[C@H]1C(=O)N[C@H](C(=O)N[C@@H](CC(N)=O)C(=O)N[C@H](C(=O)NCC(=O)N[C@@H](CO)C(=O)N[C@@H](CC(N)=O)C(=O)N[C@H](C(=O)N[C@@H](Cc1ccc(O)cc1)C(N)=O)[C@@H](C)O)C(C)C)[C@@H](C)O [Example 48, N-alpha-[(S)-4-Carboxy-4-(17-carboxyheptadecanoylamino)butyryl]-[His1,Glu14,His17]-pramlintide] ({C18 diacid-γGlu}-HCNTATCATQRLAEFLHHSSNNFGPILPPTNVGSNTY-NH2; disulfide 2-7 (inferred)) | 9 | > 200 | 177 (≈ 785 µg/mL) | > 200 | > 200 | > 200 | > 200 | > 200 | > 200 | > 200 | > 200 | – | – | – | – | – | –
4 | CC[C@H](C)[C@H](NC(=O)[C@@H]1CCCN1C(=O)CNC(=O)[C@H](Cc1ccccc1)NC(=O)[C@H](CC(N)=O)NC(=O)[C@H](CC(N)=O)NC(=O)[C@H](CO)NC(=O)[C@H](CO)NC(=O)[C@H](Cc1c[nH]cn1)NC(=O)[C@H](CCCNC(=N)N)NC(=O)[C@H](CC(C)C)NC(=O)[C@H](Cc1ccccc1)NC(=O)[C@H](CCC(=O)O)NC(=O)[C@H](C)NC(=O)[C@H](CC(C)C)NC(=O)[C@H](CCCNC(=N)N)NC(=O)[C@H](CCC(N)=O)NC(=O)[C@@H](NC(=O)[C@H](C)NC(=O)[C@@H]1CSSC[C@H](NC(=O)[C@H](CCCCN)NC(=O)CC[C@H](NC(=O)CCCCCCCCCCCCCCCCCCC(=O)O)C(=O)O)C(=O)N[C@@H](CC(N)=O)C(=O)N[C@@H]([C@@H](C)O)C(=O)N[C@@H](C)C(=O)N[C@@H]([C@@H](C)O)C(=O)N1)[C@@H](C)O)C(=O)N[C@@H](CC(C)C)C(=O)N1CCC[C@H]1C(=O)N1CCC[C@H]1C(=O)N[C@H](C(=O)N[C@@H](CC(N)=O)C(=O)N[C@H](C(=O)NCC(=O)N[C@@H](CO)C(=O)N[C@@H](CC(N)=O)C(=O)N[C@H](C(=O)N[C@@H](Cc1ccc(O)cc1)C(N)=O)[C@@H](C)O)C(C)C)[C@@H](C)O [Example 50, N-alpha-[(S)-4-Carboxy-4-(19-carboxynonadecanoylamino)butyryl]-[Glu14,Arg17]-pramlintide] ({C20 diacid-γGlu}-KCNTATCATQRLAEFLRHSSNNFGPILPPTNVGSNTY-NH2; disulfide 2-7 (inferred)) | >45 | 161 (≈ 720 µg/mL) | 132 (≈ 591 µg/mL) | – | 73 (≈ 327 µg/mL) | 62 (≈ 277 µg/mL) | 21 (≈ 94 µg/mL) | > 200 | > 200 | > 200 | 183 (≈ 819 µg/mL) | – | >45 | – | – | – | –
5 | CC[C@H](C)[C@H](NC(=O)[C@@H]1CCCN1C(=O)CNC(=O)[C@H](Cc1ccccc1)NC(=O)[C@H](CC(N)=O)NC(=O)[C@H](CC(N)=O)NC(=O)[C@H](CO)NC(=O)[C@H](CO)NC(=O)[C@H](Cc1c[nH]cn1)NC(=O)[C@H](CCCNC(=N)N)NC(=O)[C@H](CC(C)C)NC(=O)[C@H](Cc1ccccc1)NC(=O)[C@H](CCC(=O)O)NC(=O)[C@H](C)NC(=O)[C@H](CC(C)C)NC(=O)[C@H](CCCNC(=N)N)NC(=O)[C@H](CCC(N)=O)NC(=O)[C@@H](NC(=O)[C@H](C)NC(=O)[C@@H]1CSSC[C@H](NC(=O)[C@H](CCCCN)NC(=O)CC[C@H](NC(=O)CCCCCCCCCCCCCCCCCCC(=O)O)C(=O)O)C(=O)N[C@@H](CC(N)=O)C(=O)N[C@@H]([C@@H](C)O)C(=O)N[C@@H](C)C(=O)N[C@@H]([C@@H](C)O)C(=O)N1)[C@@H](C)O)C(=O)N[C@@H](CC(C)C)C(=O)N1CCC[C@H]1C(=O)N1CCC[C@H]1C(=O)N[C@H](C(=O)N[C@@H](CC(N)=O)C(=O)N[C@H](C(=O)NCC(=O)N[C@@H](CO)C(=O)N[C@@H](CC(N)=O)C(=O)N[C@H](C(=O)N1CCC[C@H]1C(N)=O)[C@@H](C)O)C(C)C)[C@@H](C)O [Example 53, N-alpha-[(S)-4-Carboxy-4-(19-carboxynonadecanoylamino)butyryl]-[Glu14,Arg17,Pro37]-pramlintide] | >45 | > 200 | > 200 | > 200 | > 200 | > 200 | > 200 | > 200 | > 200 | > 200 | > 200 | >45 | >45 | > 200 | >45 | > 200 | > 200

— patent US8722849B2, “Polypeptides” (Novo Nordisk A/S, priority 2011, dated 2014)
